Assay results as given in publication PMC8011931, “Identification, Structure–Activity Relationship, and Biological Characterization of 2,3,4,5-Tetrahydro-1H-pyrido[4,3-b]indoles as a Novel Class of CFTR Potentiators” (Journal of Medicinal Chemistry, 2020).
Converted amounts (≈) assume the structure as drawn.

Legend:
[1] = Liver microsomal stability, phase I (NADPH), human; type: in vitro ADME; conditions: for half-life at 1 h, 4.6 µM / half-life at 4.6 μM: human, liver microsomes, pH 7.5, 0.1% DMSO, n ≥ 3, read-out: human LM_NADPH t1/2; for human LM_NADPH parent compound remaining at the last time point (in parentheses): 4.6 μM, 60 min
Procedure: Phase I: 10 mM DMSO stock solution of the test compound was preincubated at 37 °C for 15 min with rat, dog, or human liver microsomes in 0.1 M Tris–HCl buffer (pH 7.5) with 10% DMSO. The final concentration was 4.6 μM. After preincubation, the cofactors (NADPH, G6P, G6PDH, and MgCl2 predissolved in 0.1 M Tris–HCl) were added to the incubation mixture and the incubation was continued at 37 °C for 1 h.
(§1) For both phase I and II studies: At each time point (0, 5, 15, 30, and 60 min), 30 μL of the incubation mixture was diluted with 200 μL of cold CH3CN spiked with 200 nM of an appropriate internal standard, followed by centrifugation at 3270g for 15 min. The supernatant was further diluted with H2O (1:1) for analysis. A reference incubation mixture (microsomes without cofactors) was prepared for each test compound and analyzed at t = 0 and 60 min in order to verify the compound’s stability in the matrix. The two time points were diluted as for the time points of the incubation mixture above. The supernatants were analyzed by LC/MS–MS on a Waters ACQUITY UPLC/MS TQD system consisting of a TQD (triple quadrupole detector) mass spectrometer equipped with an electrospray ionization interface and a photodiode array eλ detector. Electrospray ionization was applied in positive mode. Compound-dependent parameters as MRM transitions and collision energy were developed for each compound. The analyses were run on an ACQUITY UPLC BEH C18 (50 × 2.1 mm ID, particle size 1.7 μm) with a VanGuard BEH C18 precolumn (5 × 2.1 mm ID, particle size 1.7 μm) at 40 °C, using H2O + 0.1% HCOOH (A) and CH3CN + 0.1% HCOOH (B) as the mobile phase. The percentage of test compound remaining at each time point relative to t = 0 was calculated by the response factor on the basis of the internal standard peak area. The percentage of test compound versus time was plotted and fitted by GraphPad Prism (GraphPad Software, Version 5 for Windows, CA, USA, www.graphpad.com) to estimate the compound’s half-life (t1/2), which was reported as mean value along with the standard deviation (n = 3).

[2] = Aqueous kinetic solubility assay; type: physicochemical; conditions: PBS, pH 7.4; n = 3
Procedure: The aqueous kinetic solubility was determined from a 10 mM DMSO stock solution of test compound in PBS at pH 7.4. The study was performed by incubation of an aliquot of 10 mM DMSO stock solution in PBS (pH 7.4) at a target concentration of 250 μM (2.5% DMSO). The incubation was carried out under shaking at 25 °C for 24 h, followed by centrifugation at 21,100g for 30 min. The supernatant was further diluted (4:1) with CH3CN and the dissolved test compound was quantified by UV at 215 nm on a Waters ACQUITY UPLC/MS system consisting of an SQD mass spectrometer equipped with an electrospray ionization interface and a photodiode array detector. Electrospray ionization in the positive mode was used in the mass scan range of 100–500 Da. The PDA range was 210–400 nm. The analyses were run on an ACQUITY UPLC BEH C18 column (50 × 2.1 mm ID, particle size 1.7 μm) with a VanGuard BEH C18 precolumn (5 × 2.1 mm ID, particle size 1.7 μm) using 10 mM NH4OAc in H2O at pH 5 adjusted with AcOH (A) and 10 mM NH4OAc in CH3CN–H2O (95:5) at pH 5 (B) as the mobile phase.

[3] = Liver microsomal stability, phase I (NADPH), dog; type: in vitro ADME; conditions: for dog LM_NADPH parent compound remaining at the last time point (in parentheses): 4.6 μM, 60 min; for half-life at 4.6 μM: dog, liver microsomes, pH 7.5, 0.1% DMSO, n ≥ 3, read-out: dog LM_NADPH t1/2
Procedure: […] The final concentration was 4.6 μM. After preincubation, the cofactors (NADPH, G6P, G6PDH, and MgCl2 predissolved in 0.1 M Tris–HCl) were added to the incubation mixture and the incubation was continued at 37 °C for 1 h.
as §1

Row | SMILES | half-life at 1 h, 4.6 µM [1] | solubility kinetic at 24 h, 250 µM [2] | dog LM_NADPH parent compound remaining at the last time point (in parentheses) [3] | half-life at 4.6 μM [3] | human LM_NADPH parent compound remaining at the last time point (in parentheses) [1] | half-life at 4.6 μM [1] | solubility kinetic at 24 h [2]
1 | COc1ccc2[nH]c3c(c2c1)CN(C(=O)c1cc(C(F)(F)F)[nH]n1)CC3 [Compound 3, (8-Methoxy-1,3,4,5-tetrahydropyrido[4,3-b]indol-2-yl)-[5-(trifluoromethyl)-1H-pyrazol-3-yl]methanone] | 0.7 ± 0.183 h | 237 ± 11 µM (≈ 86.3 µg/mL) | 68% | > 1 h |  |  | 
2 | O=C(c1cc(C(F)(F)F)[nH]n1)N1CCc2[nH]c3c(F)cccc3c2C1 [Compound 20, (6-Fluoro-1,3,4,5-tetrahydro-2H-pyrido[4,3-b]indol-2-yl)-(5-(trifluoromethyl)-1H-pyrazol-3-yl)methanone] |  | 9 ± 4 µM (≈ 3.17 µg/mL) | 85% | > 1 h | 78% | > 1 h | 
3 | COc1cc(F)c2[nH]c3c(c2c1)CN(C(=O)c1cc(C(F)(F)F)[nH]n1)CC3 [Compound 25, (6-Fluoro-8-methoxy-1,3,4,5-tetrahydro-2H-pyrido[4,3-b]indol-2-yl)-(5-(trifluoromethyl)-1H-pyrazol-3-yl)methanone] | 0.55 ± 0.0167 h | 2 ± 1 µM (≈ 0.765 µg/mL) | 90% | > 1 h |  |  | 
4 | O=C(c1cc(C(F)(F)F)[nH]n1)N1CCc2[nH]c3c(F)ccc(F)c3c2C1 [Compound 29, (6,9-Difluoro-1,3,4,5-tetrahydro-2H-pyrido[4,3-b]indol-2-yl)-(5-(trifluoromethyl)-1H-pyrazol-3-yl)methanone] |  | 36 ± 5 µM (≈ 13.3 µg/mL) | 93% | > 1 h | >60 (60) % | > 1 h | 
5 | Cc1ccc(F)c2[nH]c3c(c12)CN(C(=O)c1cc(C(F)(F)F)[nH]n1)CC3 [Compound 30, (6-Fluoro-9-methyl-1,3,4,5-tetrahydro-2H-pyrido[4,3-b]indol-2-yl)-(5-(trifluoromethyl)-1H-pyrazol-3-yl)methanone] | 0.883 ± 0.0333 h |  | 92% | > 1 h |  |  | < 1 µM
6 | Cc1ccc(F)c2[nH]c3c(c12)CN(C(=O)c1cc(C(F)(F)F)[nH]n1)[C@H](C)C3 [Compound 39, (R)-(6-Fluoro-3,9-dimethyl-1,3,4,5-tetrahydro-2H-pyrido[4,3-b]indol-2-yl)-(5-(trifluoromethyl)-1H-pyrazol-3-yl)methanone] |  |  | 92% | > 1 h | 71% | > 1 h | < 1 µM
